Source: patent US9968619B2, “Method of treating triple-negative breast cancer using thienotriazolodiazepine compounds” (ONCOETHIX GMBH, priority 2014, dated 2018)
“Also recorded” adds a separate entry of the source.

Legend:
HCC1937 = assay: Western blotting and RT-PCR expression, HCC1937; assay type: cell-based, human; conditions: 650 nM; 24, 48 and 72 h
Source text: (§1) Logarithmic transformation of the variable was applied before the ANOVA test if required. As shown in FIG. 16A-C, Western blots are representative of three independent experiments where each bar and vertical line represents the mean±SEM, respectively (n=3). As shown in FIG. 15D-15G, C-MYC protein and mRNA levels were unchanged by Compound (1-1) treatment in all the three cell lines.
(§2) CDKN1A (p21) mRNA levels were increased in all three cell models (p<0.001). […] Significant differences in the mRNA levels were determined by one-way ANOVA test (p<0.01) followed by SNK a posteriori test (*p<0.05, **p<0.01, […]). Logarithmic transformation of the variable was applied before the ANOVA test if required. Each bar and vertical line represents the mean±SEM, respectively (n=3). Western blots are representative of 3 independent experiments.

MDA-MB-468 = assay: Western blotting and RT-PCR expression, MDA-MB-468; assay type: cell-based, human; conditions: 24, 48 and 72 h
Source text: as §1, §2

MDA-MB-231 [1] = assay: MTT proliferation assay, MDA-MB-231; conditions: Homo sapiens
MDA-MB-231 [2] = assay: Cell counting proliferation, MDA-MB-231; assay type: cell-based; conditions: Homo sapiens
[3] = 650 nM, listed as compound (1-1), dihydrate
[4] = MDA-MB-231, 48 h, 48 h exposure, hypoxia (0.1% O2)
[5] = MDA-MB-231, 48 h, 48 h exposure, normoxia
[6] = MDA-MB-231, 72 h, 72 h exposure, hypoxia (0.1% O2)
[7] = MDA-MB-231, 72 h, 72 h exposure, normoxia

GI50 (MDA-MB-231 [1]; [4]): 0.0633 µM
GI50 (MDA-MB-231 [1]; [5]): 0.132 µM
GI50 (MDA-MB-231 [1]; [6]): 0.0482 µM
GI50 (MDA-MB-231 [1]; [7]): 0.0817 µM
GI50 (MDA-MB-231 [2]; [4]): 0.144 µM
GI50 (MDA-MB-231 [2]; [5]): 0.0922 µM
GI50 (MDA-MB-231 [2]; [6]): 0.0491 µM
GI50 (MDA-MB-231 [2]; [7]): 0.0559 µM
Compound: Cc1sc2c(c1C)C(c1ccc(Cl)cc1)=N[C@@H](CC(=O)Nc1ccc(O)cc1)c1nnc(C)n1-2 [Compound (1-1), 2-[(6S)-4-(4-chlorophenyl)-2,3,9-trimethyl-6H-thienol[3,2-f]-[1,2,4]triazolo[4,3-a][1,4]diazepin-6-yl]-N-(4-hydroxyphenyl)acetamide dihydrate]
mRNA levels of BRD3 (HCC1937): reduced
BRD2 levels (MDA-MB-468; 650 nM): increased
mRNA levels of BRD3 (MDA-MB-468; 650 nM): reduced
mRNA levels of BRD4 (MDA-MB-468; 650 nM): downregulated
c-Myc expression (mRNA and protein) (MDA-MB-468; 650 nM, dihydrate): down-regulated
c-Myc expression (mRNA and protein) (MDA-MB-468; [3]): downregulated; also recorded: downregulation
mRNA levels of n-Myc (MDA-MB-468; [3]): downregulated; also recorded: downregulation
expression levels of c-MYC and n-MYC (MDA-MB-468; RT-PCR, 500 nM): marked (p<0.05) reduction
Emax (MDA-MB-231 [1]; [4]): 68%
Emax (MDA-MB-231 [1]; [5]): 71%
Emax (MDA-MB-231 [1]; [6]): 83%
Emax (MDA-MB-231 [1]; [7]): 83%
Emax (MDA-MB-231 [2]; [4]): 67%
Emax (MDA-MB-231 [2]; [5]): 71%
Emax (MDA-MB-231 [2]; [6]): 82%
Emax (MDA-MB-231 [2]; [7]): 89%
